Experimental data: article PMC6254274, “Cytotoxic Components of Pereskia bleo (Kunth) DC. (Cactaceae) Leaves” (Molecules, 2009)
Values joined by “and” are separate entries in the source; they are usually repeats but may differ in a detail not shown here. Identical values can stand only once. Like-named read-outs stand apart in the source and are kept apart here.

How the values were obtained:
[1] = In vitro Neutral Red cytotoxicity assay, MRC-5; type: cell-based, human; settings: human
Text: (§1) No effect due to the DMSO was observed. Doxorubicin was used as the positive control. The well containing untreated cells was the negative control.
(§2) Cytotoxicity of each sample is expressed as IC50 value.

[2] = system: human lung carcinoma cell line (A549); test: In vitro Neutral Red cytotoxicity assay, A549; settings: for IC50: read-out: Cytotoxicity (IC50) A549
Description: The in vitro cytotoxicity assay was carried out using a Neutral Red cytotoxicity assay as previously described by Borenfreund and Puerner with some modifications; this test determines the accumulation of the Neutral Red dye in the lysosomes of viable and uninjured cells.
Human nasopharyngeal epidermoid carcinoma cell line (KB), human cervical carcinoma cell line (CasKi), human colon carcinoma cell line (HCT 116), human hormone-dependent breast carcinoma cell line (MCF7), human lung carcinoma cell line (A549) and non-cancer human fibroblast cell line (MRC-5) were purchased from the American Tissue Culture Collection (ATCC, USA). KB cells were maintained in Medium 199 (Sigma), CasKi, A549 and MCF7 cells in RPMI 1640 medium (Sigma), HCT 116 in McCOY’S 5A Medium (Sigma) and MRC-5 cells in EMEM (Eagle Minimum Essential Medium) (Sigma), supplemented with 10% foetal bovine serum (FBS, PAA Lab, Austria), 100 µg/mL penicillin or streptomycin (PAA Lab, Austria) and 50 µg/mL of fungizone (PAA Lab, Austria). The cells were cultured in a 5% CO2 incubator (Shel Lab water-jacketed) kept at 37°C in a humidified atmosphere.
The Neutral Red cytotoxicity assay is based on the initial protocol described by Borenfreund and Puerner with some modifications. Briefly, the cells (1x10^4/well) were seeded in 96-well microtiter plates (Nunc) and allowed to grow for 24 hours before treatment. After 24 hours of incubation, the cells were treated with six different concentrations (0.1-100 µg/mL) of test compounds, in three replicates. The plates were further incubated for 72 h at 37°C in a 5% CO2 incubator. A stock solution was initially obtained by dissolving the test compounds in DMSO. Further dilution to different tested concentrations were then carried out ensuring that the final concentration of DMSO in the test and control wells was not in excess of 1% (v/v). […] The well containing untreated cells was the negative control. At the end of the incubation period, the media were replaced with medium containing 50 µg/mL of Neutral Red. The plates were incubated for another 3 hours to allow for uptake of the vital dye into the lysosomes of viable and […] cells. After the incubation period, the media were removed and cells were washed with the neutral red washing solution. The dye was eluted from the cells by adding 200 µL of Neutral Red resorb solution and incubated for 30 minutes at room temperature with rapid agitation on a microtiter plate shaker. Dye absorbance was measured at 540 nm using a spectrophotometer ELISA plate reader. The average data from triplicates were expressed in terms of killing percentage relative to negative control. The percentage of inhibition (%) of each of the test samples was calculated according to the following formula: [drawing 1] where OD control: Optical Density of negative control; OD sample: Optical Density of sample
Cytotoxicity of each sample is expressed as IC50 value. The IC50 value is the concentration of test compounds that cause 50 % inhibition or cell death, averaged from the three experiments, and was obtained by plotting the percentage inhibition versus concentration of test compounds. […] However, we recognized that whether an IC50 value corresponds to a significant or non-significant cytotoxicity depends on the sensitivity of the cell line.

[3] = system: human hormone-dependent breast carcinoma cell line (MCF7); test: In vitro Neutral Red cytotoxicity assay, MCF7; type: cell-based; settings: for IC50: read-out: Cytotoxicity (IC50) MCF7
Text: The well containing untreated cells was the negative control.
as §2

[4] = system: human colon carcinoma cell line (HCT 116); test: In vitro Neutral Red cytotoxicity assay, HCT 116; type: cell-based; settings: for IC50: read-out: Cytotoxicity (IC50) HCT 116
Text: as §1, §2

[5] = system: human nasopharyngeal epidermoid carcinoma cell line (KB); test: In vitro Neutral Red cytotoxicity assay, KB; type: cell-based; settings: 72 h; for IC50: read-out: Cytotoxicity (IC50) KB
Text: as §1, §2

[6] = system: human cervical carcinoma cell line (CasKi); test: In vitro Neutral Red cytotoxicity assay, CasKi; type: cell-based; settings: 72 h; for IC50: read-out: Cytotoxicity (IC50) CasKi
Text: as §1, §2

[7] = system: non-cancer human fibroblast cell line (MRC-5); test: In vitro Neutral Red cytotoxicity assay, MRC-5; type: cell-based; settings: MRC-5 cells, 72 h
Text: as §1, §2

[8] = MRC-5 cells (non-cancer fibroblast cell line)
[9] = MRC-5 cells (non-cancer fibroblast cell line), value in parentheses
[10] = Homo sapiens, HCT 116 cells, 72 h, Neutral Red
[11] = Homo sapiens, HCT 116 cells, 72 h, Neutral Red, value in parentheses
[12] = Homo sapiens, KB cells, Neutral Red
[13] = Homo sapiens, KB cells, Neutral Red, value in parentheses
[14] = Homo sapiens, Ca-Ski, CasKi cells, Neutral Red
[15] = Homo sapiens, Ca-Ski, CasKi cells, Neutral Red, value in parentheses
[16] = Homo sapiens, MCF7 cells, 72 h, Neutral Red
[17] = Homo sapiens, MCF7 cells, 72 h, Neutral Red, value in parentheses

Compound	IC50 ([2]; Homo sapiens, A549, 72 h)	IC50 at 72 h [1, 8] [µg/mL]	IC50 at 72 h [1, 9] [µM]	IC50 [4, 10] [µg/mL]	IC50 [4, 11] [µM]	IC50 [5, 12] [µg/mL]	IC50 [5, 13] [µM]	IC50 [6, 14] [µg/mL]	IC50 [6, 15] [µM]	IC50 [3, 16] [µg/mL]	IC50 [3, 17] [µM]	further results
CC[C@H](CC[C@@H](C)[C@H]1CC[C@H]2[C@@H]3CC=C4C[C@@H](O)CC[C@]4(C)[C@H]3CC[C@]12C)C(C)C [β -sitosterol (4), β-sitosterol]	78 µg/mL and 188 µM											IC50 at 72 h ([1]; MRC-5 cells): > 100 µg/mL; IC50 at 72 h ([1]; MRC-5 cells, value in parentheses): > 242 µM; IC50 ([3]; Homo sapiens, MCF7, 72 h): 72 µg/mL and 174 µM; IC50 ([4]; Homo sapiens, HCT-116, 72 h): > 100 µg/mL and > 242 µM; IC50 ([5]; Homo sapiens, KB): > 100 µg/mL and > 242 µM; IC50 ([6]; Homo sapiens, Ca-Ski): 62 µg/mL and 150 µM
COc1cccc2c1C(=O)c1c(O)c3c(c(O)c1C2=O)C[C@@](O)(C(=O)CO)C[C@@H]3O[C@H]1C[C@H](N)[C@H](O)[C@H](C)O1 [Doxorubicin, reference compound]	0.22 µg/mL and 401 nM	0.55	1.01	0.36	0.663	0.013	0.023	0.006	0.011			
CC1(C)CCCC2(C)OC(=O)C=C12 (stereo not shown) [Dihydroactinidiolide (1), Dihydroactinidiolide]	97 µg/mL and 539 µM	91.3	507	5	27.8	6.7	37.2	40	222	30	167	
phytol [Phytol (7)]												Cytotoxicity (IC50) MRC-5 [7]: 74.3 µg/mL; IC50 ([7]; value in parentheses): 251 µM; Cytotoxicity (IC50) A549 ([2]; A549 cells, 72 h, Neutral Red): 31 µg/mL; IC50 ([2]; A549 cells, 72 h, Neutral Red, value in parentheses): 105 µM; Cytotoxicity (IC50) MCF7 ([3]; MCF7 cells, 72 h, Neutral Red): 34 µg/mL; IC50 ([3]; MCF7 cells, 72 h, Neutral Red, value in parentheses): 115 µM; Cytotoxicity (IC50) HCT 116 ([4]; HCT 116 cells, 72 h, Neutral Red): 100 µg/mL; IC50 ([4]; HCT 116 cells, 72 h, Neutral Red, value in parentheses): 338 µM; Cytotoxicity (IC50) KB ([5]; KB cells, Neutral Red): 7.1 µg/mL; IC50 ([5]; KB cells, Neutral Red, value in parentheses): 24 µM; Cytotoxicity (IC50) CasKi ([6]; CasKi cells, Neutral Red): 18 µg/mL; IC50 ([6]; CasKi cells, Neutral Red, value in parentheses): 60.8 µM
Cc1c(C)c2c(c(C)c1O)CC[C@@](C)(CCC[C@H](C)CCC[C@H](C)CCCC(C)C)O2 [α-tocopherol (6), α-tocopherol]	6 µg/mL and 13.9 µM	30.5	70.9	31	72.1	8	18.6	6	14	7.5	17.4	
CC(C)(C)c1ccc(O)c(C(C)(C)C)c1 [2,4-di tert butylphenol (5), 2,4-di-tert-butylphenol]	6 µg/mL and 29.1 µM	20	97.1	29	141	0.81	3.93	4.5	21.8	5.75	27.9	
